Experimental data from US11555006B2, “Elucidation of novel 13-series resolvins that increase with atorvastatin and clear infections” (The Brigham and Women's Hospital, Inc., priority 2015, dated 2023).

What was measured:
[1] = system: E. coli infections in mice; assay: E. coli peritonitis in mice; assay type: in vivo; settings: for In vivo: circulating platelet-leukocyte aggregates / In vivo: exudate pro-inflammatory eicosanoid levels during infections / In vivo: infection induced hypothermia / In vivo: macrophage efferocytosis of apoptotic neutrophils / In vivo: murine leukocyte phagocytosis of E. coli / In vivo: neutrophil recruitment during infections / In vivo: protective actions of atorvastatin in infections / In vivo: pyroptosis: summary table of bioactions
Method: All animal experiments were conducted in accordance with the Harvard Medical Area Standing Committee on Animals (protocol no. 02570). Mice (male FvB, 6-8 weeks old, Charles River, fed lab diet containing essential fatty acids as from supplier) were anesthetized with isoflurane and microbial peritonitis initiated. Briefly, test compounds or vehicle were injected i.p. or i.v. 5 min prior to live E. coli (serotype 06:K2:H1; 1×10^5 or 1×10^7 CFU/mouse). At designated time intervals mice were harvested, blood was collected via cardiac puncture in heparin, and peritoneal exudates were collected in 4 ml of PBS. The cellular composition in the exudates was determined using Turks solution and light microscopy, and by flow cytometry. For flow cytometry, exudate cells were incubated with anti-mouse CD16/CD32 (eBiosciences, 20 min, 4° C., in PBS containing 5% fetal calf serum-staining solution), followed by incubation with FITC-conjugated anti-mouse Ly6G antibody (clone: 1A8, eBiosciences), PE-conjugated anti-mouse F4/80 antibody (clone:BM8, eBiosciences) and PerCP-Cy5.5-conjugated anti-mouse CD11b antibody (clone:M1/70, eBiosciences) for 30 min (4° C., in staining solution). To assess bacterial phagocytosis in peritoneal exudate leukocytes, exudate cells were incubated with PerCP-Cy5.5-conjugated anti-mouse CD11b antibody (30 min, 4° C., in staining solution), then fixed and permeabilized using BD Perm/Wash™ Buffer (BD Biosciences) following manufacturer's instructions and incubated with FITC-conjugated anti-E. coli antibody (GenTex, 30 min, 4° C., in BD Perm/Wash™ Buffer). Efferocytosis in infectious exudates was assessed by incubating exudate leukocytes with PE-conjugated anti-mouse F4/80 antibody (30 min, 4° C., in staining solution), then fixed and permeabilized using BD Perm/Wash™ Buffer (BD Biosciences) and incubated with FITC-conjugated anti-mouse Ly6G antibody (30 min, 4° C., in BD Perm/Wash™ Buffer). Body temperatures were assessed using an Infrared thermometer (Fluke). Bacterial counts in peripheral blood and inflammatory exudates were determined by overnight cultures (37° C.) of serially diluted samples on LB agar plates. Caspase 1 levels were assessed by incubation of exudate cells with PerCP-Cy5.5-conjugated anti-mouse CD11b antibody (30 min, 4° C., in staining solution), then fixed and permeabilized using BD Perm/Wash™ Buffer (BD Biosciences), incubated with anti-caspase 1 antibody (Abcam, 30 min, 4° C., in BD Perm/Wash™ Buffer) followed by anti-rabbit Alexa 488 conjugated antibody (Life Technologies, 30 min, 4° C., in BD Perm/Wash™ Buffer). IL-1β levels were determined in cell-free supernatants using an anti-mouse IL-1β ELISA (Abcam) following manufacturer's instructions. Lactate dehydrogenase activity was measured in cell-free supernatants assessing the formation of NADH from NAD+ using a Lactate Dehydrogenase Assay kit (Sigma) following manufacturer's instructions.
In select experiments resolution indices were calculated as in ^27. Ψmax, maximal PMN numbers in exudates; Tmax, time point when PMN numbers reach maximum; R50, 50% of maximal PMN numbers; T50, time point when PMN numbers reduce to 50% of maximum; Ri (resolution interval), T50-Tmax, time period when 50% PMN are lost from the exudates. To assess the proresolving actions of the test products, these were administered 12 h after E. coli (10^5 CFU) inoculation, and resolution indices were assessed.
For some experiments, mice were administered via i.p. injection RvT1, RvT2, RvT3 and RvT4 (that were isolated as detailed below and combined as a mixture at a ratio of 2:1:1:8 respectively) 2 h after E. coli inoculation. Blood and lungs were harvested 6 h after E. Coli inoculation. Blood was employed to determine peripheral blood eicosanoid levels as detailed below.

[2] = system: human neutrophil-endothelial cell co-incubations; assay: Lipid mediator levels in human endothelial cell incubations and neutrophil-endothelial cell co-incubations; assay type: cell-based; settings: atorvastatin 0.03-30 μM
Method: Prior to sample extraction, deuterated internal standards (d4-PGE2, d5-LXA4, d4-RvD2, d4-LTB4 and d8-5S-HETE) representing regions of interest in the chromatographic analysis (500 pg each) were added to facilitate quantification. Extracted samples were analyzed by a LC-MS-MS system, Qtrap 6500 (AB Sciex) equipped with a Shimadzu SIL-20AC autoinjector and LC-20AD binary pump (Shimadzu Corp.). An Agilent Eclipse Plus C18 column (100×4.6 mm×1.8 μm) was used with a gradient of methanol/water/acetic acid of 55:45:0.01 (vol:vol:vol) that was ramped to 85:15:0.01 (vol:vol:vol) over 10 min and then to 98:2:0.01 (vol:vol:vol) for the next 8 min. This was subsequently maintained at 98:2:0.01 (vol:vol:vol) for 2 min. The flow rate was maintained at 0.4 ml/min. To monitor and quantify the levels of lipid mediators, a multiple reaction monitoring (MRM) method was developed with signature ion fragments (m/z) for each molecule monitoring the parent ion (Q1) and a characteristic daughter ion (Q3). […] Calibration curves were determined using a mixture of lipid mediators obtained via total organic synthesis, where these lipid mediators were not available (RvT1, RvT2, RvT3, RvT4 and 13-HDPA); known mediators with similar chromatographic properties (RvD2 for RvT1, RvD1 for RvT2 and RvT3; RvD5 for RvT4; 13-HDHA for 13-HDPA) were used. […]

human macrophages [3] = assay: Human macrophage phagocytosis, ROS and efferocytosis; assay type: cell-based; settings: for In vitro: human macrophage efferocytosis of apoptotic neutrophils: summary table of bioactions; for In vitro: human macrophage and neutrophil intra-phagolysosomal ROS production / In vitro: human macrophage and neutrophil phagocytosis of E. coli: summary table, macrophages and neutrophils
Method: Macrophages were prepared from peripheral blood mononuclear cells (PBMC) purchased from Children's Hospital Blood Bank, Boston, and phagocytosis was assessed as in^31. Briefly, macrophages (5×10^4 cells/well) were incubated with RvT1 (1 pM-10 nM), 1:1 mixture RvT2 and RvT3 (1 pM-10 nM), RvT4 (1 pM-10 nM) or vehicle (0.1% EtOH in DPBS) for 15 min at 37° C., then fluorescent labeled apoptotic cells were added and cells incubated 45 min at 37° C. Extracellular fluorescence was quenched using Trypan blue (1:15 dilution) and phagocytosis assessed using an M3 SpectraMax plate reader (Molecular Devices). In select experiments, macrophages (prepared as detailed above, 5×10^4 cells/well) or neutrophils (1×10^5 cells/well), obtained from human healthy volunteers and isolated as in ^31 in accordance with Partners Human Research Committee Protocol (number 1999P001297), were incubated with H2DCFDA (5 μM, 30 min, 37° C.), excess dye was washed off and cells incubated with RvT1 (1 pM-10 nM), 1:1 mixture RvT2 and RvT3 (1 pM-10 nM), RvT4 (1 pM-10 nM) or vehicle (0.1% EtOH in DPBS, 15 min, 37° C.), then incubated with E. coli (1:50 leukocytes to E. coli, 45 min, 37° C.). Intracellular reactive oxygen species were determined by measuring fluorescence using an M3 SpectraMax plate reader. To assess bacterial phagocytosis, macrophages (5×10^4 cells/well) or neutrophils (1×10^5 cells/well) were incubated with RvT1 (1 pM-10 nM), 1:1 mixture RvT2 and RvT3 (1 pM-10 nM), RvT4 (1 pM-10 nM) or vehicle (0.1% EtOH in DPBS, 15 min, 37° C.), then incubated with BacLight Green (Molecular Probes) labeled E. coli (1:50 leukocytes to E. coli, 45 min, 37° C.). Extracellular fluorescence was then quenched using Trypan blue (1:15 dilution), and phagocytosis was assessed using an M3 SpectraMax plate reader.

human macrophages [4] = assay: Human macrophage caspase 1, IL-1β and lactate dehydrogenase; assay type: cell-based; settings: summary table of bioactions
Method: Human macrophages (1.5×10^4 cells/well) were incubated with RvT1 (10 pM-10 nM), 1:1 mixture RvT2 and RvT3 (10 pM-10 nM), RvT4 (10 pM-10 nM) or vehicle (0.1% EtOH in DPBS, 15 min, 37° C.), then E. coli (7.5×10^5 cells/well, in DPBS, 16 h, 37° C.). Caspase 1 levels were assessed in macrophages by flow cytometry after cell fixing and permeabilization, staining with an anti-caspase 1 (Abcam; 4° C., 30 min) and anti-rabbit-Alexa 488 conjugated antibody (Molecular Probes; 4° C., 30 min). IL-1β levels were determined in cell-free supernatants using an anti-human IL-1β ELISA (eBiosciences) following manufacturer's instructions. Lactate dehydrogenase activity was measured in cell-free supernatants assessing the formation of NADH from NAD+ using a Lactate Dehydrogenase Assay kit (Sigma) following manufacturer's instructions.

nitric oxide synthase = assay: L-NAME and atorvastatin in E. coli inoculated mice, plasma RvT; assay type: in vivo
Method: In a separate set of experiments, mice were inoculated with E. coli; after 60 min they were given L-NAME (24 mg/kg) and 5 min later atorvastatin (5 μg) via i.v. injection. Plasma was obtained after 5 h via cardiac puncture and LM levels were investigated by lipid mediator metabololipidomics. For all animal experiments mice were randomized to vehicle or treatment groups without blinding.

Compound	PGI2 and 15-deoxy-Δ-12,14-PGJ2 ([1]; treatment 2 h after E. coli, blood 6 h after E. coli)	endothelin-1 and plasminogen activator inhibitor-1 ([1]; treatment 2 h after E. coli, lung mRNA 6 h after E. coli)	RvT in neutrophil-endothelial cell co-cultures [2]	In vitro: human macrophage efferocytosis of apoptotic neutrophils (human macrophages [3])	In vitro: human macrophage and neutrophil intra-phagolysosomal ROS production (human macrophages [3])	In vitro: human macrophage and neutrophil phagocytosis of E. coli (human macrophages [3])	In vivo: circulating platelet-leukocyte aggregates [1]	In vivo: exudate pro-inflammatory eicosanoid levels during infections [1]	In vivo: infection induced hypothermia [1]	In vivo: macrophage efferocytosis of apoptotic neutrophils [1]	In vivo: murine leukocyte phagocytosis of E. coli [1]	In vivo: neutrophil recruitment during infections [1]	In vivo: protective actions of atorvastatin in infections [1]	In vivo: pyroptosis [1]	In vitro: E. coli induced inflammasome components in human macrophages (human macrophages [4])	In vitro: E. coli induced macrophage pyroptosis (human macrophages [4])	atorvastatin-mediated increases in plasma RvT (nitric oxide synthase; L-NAME 24 mg/kg prior to atorvastatin 5 μg/mouse i.v., E. coli 1×10^5 CFU/mouse)	neutrophil recruitment to the peritoneum (nitric oxide synthase; L-NAME prior to atorvastatin during mouse infections)
CC(C)c1c(C(=O)Nc2ccccc2)c(-c2ccccc2)c(-c2ccc(F)cc2)n1CC[C@@H](O)C[C@@H](O)CC(=O)O [atorvastatin]	increases	reduced	dose-dependent increases															
CCC=CCC=CC=CC(O)C(O)C=CC=CC(O)CCCCCC(=O)O (centres unmarked) [RvT3, 7,12,13-trihydroxy-docosapentaenoic acid]				Stimulates human	Stimulates human	Stimulates human	Reduces circulating platelet-	Reduces exudate pro-	Protects against infection	Stimulates macrophage	Stimulates murine leukocyte	Limits neutrophil	Elaborates the protective	Reduces pyroptosis	Reduces E. coli induced	Reduces E. coli induced		
7,8,13-trihydroxy-docosapentaenoic [RvT2]				Stimulates human	Stimulates human	Stimulates human	Reduces circulating platelet -	Reduces exudate pro-	Protects against infection	Stimulates macrophage	Stimulates murine leukocyte	Limits neutrophil recruitment	Elaborates the protective	Reduces pyroptosis	Reduces E. coli induced	Reduces E. coli induced		
COC(=O)[C@@H](N)CCCNC(=N)N[N+](=O)[O-] [L-NAME, L-NG-Nitroarginine Methyl Ester]																	significantly reversed	increased
CC/C=C\C/C=C\C=C\C(O)C/C=C\C=C\C(O)CCCCCC(=O)O (centres unmarked) [RvT4, 7,13-dihydroxy-docosapentaenoic acid]				Stimulates human	Stimulates human	Stimulates human	Reduces circulating platelet-	Reduces exudate pro-	Protects against infection	Stimulates macrophage	Stimulates murine leukocyte	Limits neutrophil recruitment	Elaborates the protective	Reduces pyroptosis	Reduces E. coli induced	Reduces E. coli induced		
